Results: patent EP4603105A1, “PHARMACEUTICAL COMPOSITION CONTAINING CYCLIC COMPOUND HAVING SELECTIVE KRAS INHIBITORY EFFECT AGAINST HRAS AND NRAS” (CHUGAI SEIYAKU KABUSHIKI KAISHA, priority 2022, dated 2024)
Where a SMILES comes first, the peptide text is derived from it. Bridges are numbered along the chain shown (N, C = ends). [ ]: non-standard residue; d: D form. The star is where a group is joined. hPhe(3,5-F2-4-CF3) = N[C@@H](CCc1cc(F)c(C(F)(F)F)c(F)c1)C(=O)O; hPhe(3-Cl-4-CF3) = N[C@@H](CCc1ccc(C(F)(F)F)c(Cl)c1)C(=O)O; NPrPhe(4-CF3) = CCCN[C@@H](Cc1ccc(C(F)(F)F)cc1)C(=O)O; NEtPhe(4-Me) = CCN[C@@H](Cc1ccc(C)cc1)C(=O)O; NMeAbu(4,4,4-F3) = CN[C@@H](CC(F)(F)F)C(=O)O; NMeGly(cPent) = CN[C@H](C(=O)O)C1CCCC1; Pro(4S-Me) = C[C@@H]1CN[C@H](C(=O)O)C1; Ac4c(3,3-F2) = NC1(C(=O)O)CC(F)(F)C1; NMeD = CN[C@@H](CC(=O)O)C(=O)O; Ac4c(3-oxa) = NC1(C(=O)O)COC1; NMeL = CN[C@@H](CC(C)C)C(=O)O; Morpholide = C1CN(*)CCO1; NMeA = CN[C@@H](C)C(=O)O; Ac5c = NC1(C(=O)O)CCCC1; Aze = O=C(O)[C@@H]1CCN1; Sar = CNCC(=O)O

Experiments:
HRAS wild-type protein = HRAS wild-type protein (Homo sapiens, UniProt P01112); assay: Binding to HRAS by surface plasmon resonance (SPR), KD and KD ratio to KRAS
Method in brief: (§1)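 Recombinant RAS proteins bearing a biotinylated Avi tag and loaded with GDP served as the captured ligand, recaptured fresh every cycle. Binding responses were referenced to an uncoated surface and a buffer-only blank cycle. Dissociation constants were obtained by 1:1 model fitting at 30°C.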

[1] = system: human lung cancer strain NCI-H441; assay type: cell-based
Method in brief: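 Signal came from […] measured per well once the reagent was added. Beforehand, cells were cultured at 37°C and 5% carbon dioxide on a compound series serially diluted in dimethyl sulfoxide.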

[2] = target: GDP-bound NRAS wild-type protein (Homo sapiens, UniProt P01111); assay: Binding to NRAS by surface plasmon resonance (SPR), KD and KD ratio to KRAS
Method in brief: as §1

[3] = ratio of KD for HRAS wild-type protein to KD for KRAS
[4] = ratio of KD for GDP-bound NRAS wild-type protein to KD for KRAS
[5] = ratio of the KD value with respect to HRAS wild-type protein to the KD value with respect to KRAS
[6] = ratio of the KD value with respect to GDP-bound NRAS wild-type protein to the KD value with respect to KRAS
[7] = ratio of KD value for HRAS wild-type protein to KD value for KRAS (SPR)
[8] = ratio of KD value for GDP-bound NRAS wild-type protein to KD value for KRAS (SPR)

HRAS wild-type protein, sequence (P01112 whole entry): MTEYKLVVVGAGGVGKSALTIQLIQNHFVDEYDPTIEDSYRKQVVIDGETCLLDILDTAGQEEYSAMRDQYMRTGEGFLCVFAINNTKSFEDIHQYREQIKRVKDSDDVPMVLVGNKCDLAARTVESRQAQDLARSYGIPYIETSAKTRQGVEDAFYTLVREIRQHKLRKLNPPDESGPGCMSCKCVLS
GDP-bound NRAS wild-type protein, sequence (P01111 whole entry): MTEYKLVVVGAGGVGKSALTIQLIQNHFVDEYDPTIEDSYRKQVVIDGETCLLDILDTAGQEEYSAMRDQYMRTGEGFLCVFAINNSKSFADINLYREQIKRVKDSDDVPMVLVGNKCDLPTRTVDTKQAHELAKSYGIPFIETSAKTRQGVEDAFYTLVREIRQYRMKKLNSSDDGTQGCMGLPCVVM

SMILES | HRAS /KRAS (HRAS wild-type protein; [3]) | IC50 [1] | NRAS /KRAS [2, 4] | HRAS /KRAS (HRAS wild-type protein; [5]) | NRAS /KRAS [2, 6] | HRAS /KRAS (HRAS wild-type protein; [7]) | NRAS /KRAS [2, 8]
CCCN1C(=O)[C@@H]2CCN2C(=O)[C@H](C)N(C)C(=O)[C@H]([C@@H](C)CC)NC(=O)[C@H](CC(C)C)N(C)C(=O)C[C@@H](C(=O)N2CCOCC2)N(C)C(=O)[C@H](C2CCCC2)N(C)C(=O)C2(CCCC2)NC(=O)[C@H](C)NC(=O)[C@H](CCc2ccc(C(F)(F)F)c(Cl)c2)NC(=O)CN(C)C(=O)[C@@H]1Cc1ccc(C(F)(F)F)cc1 [PP0153] ([NMeL]I[NMeA][Aze][NPrPhe(4-CF3)][Sar][hPhe(3-Cl-4-CF3)]A[Ac5c][NMeGly(cPent)][NMeD]-Morpholide; lactam N-11) | C (A compound having a KD ratio of 0.1 or more and less than 3 is denoted as C) | 11.6 nM | C (A compound having a KD ratio of 0.1 or more and less than 3 is denoted as C) |  |  |  | 
CCO[C@@H]1C[C@H]2C(=O)NC3(CCC3)C(=O)N(C)[C@@H](C3CCCC3)C(=O)N(CC)[C@H](C(=O)N3CCOCC3)CC(=O)N(C)[C@@H](CCOC)C(=O)N[C@@H]([C@@H](C)CC)C(=O)N(C)CC(=O)N(C)[C@H]3CCCCCN(C3=O)[C@@H](Cc3ccc(C(F)(F)F)cc3)C(=O)N(C)CC(=O)N[C@@H](CCc3cc(F)c(C(F)(F)F)c(F)c3)C(=O)N2C1 [PP0947] | A (a compound having 10 or more and less than 20 is denoted as A) | 597 nM | A (a compound having 10 or more and less than 20 is denoted as A) |  |  |  | 
CCCN1C(=O)CN(C)C(=O)CNC(=O)[C@H]([C@@H](C)CC)NC(=O)[C@H](CC(C)C)N(C)C(=O)C[C@@H](C(=O)N2CCOCC2)N(C)C(=O)[C@H](C2CCCC2)N(C)C(=O)C2(CCCC2)NC(=O)[C@@H]2C[C@H](C)CN2C(=O)[C@H](CCc2ccc(C(F)(F)F)c(Cl)c2)NC(=O)CN(C)C(=O)[C@@H]1Cc1ccc(C(F)(F)F)cc1 [PP0449] ([NMeL]IG[Sar][NPrPhe(4-CF3)][Sar][hPhe(3-Cl-4-CF3)][Pro(4S-Me)][Ac5c][NMeGly(cPent)][NMeD]-Morpholide; lactam N-11) |  | 9.2 nM |  | C (A compound having a KD ratio of 0.1 or more and less than 3 is denoted as C) | C (A compound having a KD ratio of 0.1 or more and less than 3 is denoted as C) |  | 
CC[C@H](C)[C@@H]1NC(=O)[C@H](CC(C)C)N(C)C(=O)C[C@@H](C(=O)N(C)C)N(C)C(=O)[C@H](C2CCCC2)N(C)C(=O)C2(CCCC2)NC(=O)[C@@H]2CCCN2C(=O)[C@H](CCc2ccc(C(F)(F)F)c(Cl)c2)NC(=O)CN(C)C(=O)[C@H](Cc2ccc(C(F)(F)F)cc2)N2CC/C=C\COC[C@@H](C2=O)N(C)C(=O)CN(C)C1=O [PP0622] |  | 330 nM |  | B (a compound having 3 or more and less than 10 is denoted as B) | B (a compound having 3 or more and less than 10 is denoted as B) |  | 
CC[C@H](C)[C@@H]1NC(=O)[C@H](CC(C)C)N(C)C(=O)C[C@@H](C(=O)N2CCOCC2)N(C)C(=O)[C@H](C2CCCC2)N(C)C(=O)C2(CCC2)NC(=O)[C@@H]2[C@@H](OC)CCN2C(=O)[C@H](CCc2cc(F)c(C(F)(F)F)c(F)c2)NC(=O)CN(C)C(=O)[C@H](Cc2ccc(C(F)(F)F)cc2)N2CCCC[C@@H](C2=O)N(C)C(=O)CN(C)C1=O [PP1075] | B (a compound having 3 or more and less than 10 is denoted as B) | 21.8 nM | B (a compound having 3 or more and less than 10 is denoted as B) |  |  |  | 
CCO[C@@H]1C[C@H]2C(=O)NC3(CCC3)C(=O)N(C)[C@@H](C3CCCC3)C(=O)N(C)[C@H](C(=O)N(C)C)CC(=O)N(C)[C@@H](CC3CCCC3)C(=O)N[C@@H]([C@@H](C)CC)C(=O)N(C)CC(=O)N(C)[C@H]3C/C=C\CCN(C3=O)[C@@H](Cc3ccc(C)cc3)C(=O)N(C)CC(=O)N[C@@H](CCc3cc(C)c(C(F)F)c(C)c3)C(=O)N2C1 [PP2675] | A (a compound having 10 or more and less than 20 is denoted as A) | 138 nM | A (a compound having 10 or more and less than 20 is denoted as A) |  |  |  | 
CCCN1C(=O)[C@@H]2CCN2C(=O)CN(C)C(=O)[C@H]([C@@H](C)CC)NC(=O)[C@H](CC(C)C)N(C)C(=O)C[C@@H](C(=O)N2CCOCC2)N(C)C(=O)[C@H](C2CCCC2)N(C)C(=O)C2(CCCC2)NC(=O)[C@@H]2CCCN2C(=O)[C@H](CCc2ccc(C(F)(F)F)c(Cl)c2)NC(=O)CN(C)C(=O)[C@@H]1Cc1ccc(C(F)(F)F)cc1 [PP0156] ([NMeL]I[Sar][Aze][NPrPhe(4-CF3)][Sar][hPhe(3-Cl-4-CF3)]P[Ac5c][NMeGly(cPent)][NMeD]-Morpholide; lactam N-11) | B (a compound having 3 or more and less than 10 is denoted as B) | 8.1 nM | C (A compound having a KD ratio of 0.1 or more and less than 3 is denoted as C) |  |  |  | 
CCCN1C(=O)CN(C)C(=O)[C@@H]2CCN2C(=O)[C@H]([C@@H](C)CC)NC(=O)[C@H](CC(C)C)N(C)C(=O)C[C@@H](C(=O)N2CCOCC2)N(C)C(=O)[C@H](C2CCCC2)N(C)C(=O)C2(CC(F)(F)C2)NC(=O)[C@@H]2CCCN2C(=O)[C@H](CCc2cc(F)c(C(F)(F)F)c(F)c2)NC(=O)CN(C)C(=O)[C@@H]1Cc1ccc(C(F)(F)F)cc1 [PP0783] ([NMeL]I[Aze][Sar][NPrPhe(4-CF3)][Sar][hPhe(3,5-F2-4-CF3)]P[Ac4c(3,3-F2)][NMeGly(cPent)][NMeD]-Morpholide; lactam N-11) | B (a compound having 3 or more and less than 10 is denoted as B) | 122 nM | B (a compound having 3 or more and less than 10 is denoted as B) |  |  |  | 
CCCN(C)C(=O)[C@@H]1CC(=O)N(C)[C@@H](CC(F)F)C(=O)N[C@@H]([C@@H](C)CC)C(=O)N(C)CC(=O)N(C)[C@H]2C/C=C\CCN(C2=O)[C@@H](Cc2ccc(C(F)(F)F)cc2)C(=O)N(C)CC(=O)N[C@@H](CCc2cc(F)c(Cl)c(F)c2)C(=O)N2C[C@H](OCC)C[C@H]2C(=O)NC2(CC(C)(C)C2)C(=O)N(C)[C@@H](C2CCCC2)C(=O)N1C [PP1757] |  | 7.1 nM |  |  |  | A (a compound having 10 or more and less than 20 is denoted as A) | AA (a compound having 20 or more is denoted as AA)
CC[C@H](C)[C@@H]1NC(=O)[C@H](CC(F)(F)F)N(C)C(=O)C[C@@H](C(=O)N2CCOCC2)N(C)C(=O)[C@H](C2CCCC2)N(C)C(=O)C2(CCCC2)NC(=O)[C@@H]2CCCN2C(=O)[C@H](CCc2ccc(C(F)(F)F)c(Cl)c2)NC(=O)CN(C)C(=O)[C@H](Cc2ccc(C)cc2)N(CC)C(=O)CN(C)C(=O)CN(C)C1=O [PP0032] ([NMeAbu(4,4,4-F3)]I[Sar][Sar][NEtPhe(4-Me)][Sar][hPhe(3-Cl-4-CF3)]P[Ac5c][NMeGly(cPent)][NMeD]-Morpholide; lactam N-11) | C (A compound having a KD ratio of 0.1 or more and less than 3 is denoted as C) | 26.9 nM | C (A compound having a KD ratio of 0.1 or more and less than 3 is denoted as C) |  |  |  | 
CC[C@H](C)[C@@H]1NC(=O)[C@@H](CC(C)C)N(C)C(=O)C[C@@H](C(=O)N(C)C)N(C)C(=O)[C@@H](C2CCCC2)N(C)C(=O)C2(CCCC2)NC(=O)[C@@H]2CCCN2C(=O)[C@H](CCc2ccc(C(F)(F)F)c(Cl)c2)NC(=O)CN(C)C(=O)[C@@H](Cc2ccc(C)cc2)N2CC/C=C\CCN(CC2=O)C(=O)CN(C)C1=O [PP0618] |  | 79.1 nM |  | C (A compound having a KD ratio of 0.1 or more and less than 3 is denoted as C) | C (A compound having a KD ratio of 0.1 or more and less than 3 is denoted as C) |  | 
CCCN1C(=O)CN(C)C(=O)CN(C)C(=O)[C@H]([C@@H](C)CC)NC(=O)[C@H](CC(C)C)N(C)C(=O)C[C@@H](C(=O)N2CCOCC2)N(C)C(=O)[C@H](C2CCCC2)N(C)C(=O)C2(COC2)NC(=O)[C@@H]2CCCN2C(=O)[C@H](CCc2ccc(C(F)(F)F)c(Cl)c2)NC(=O)CN(C)C(=O)[C@@H]1Cc1ccc(C(F)(F)F)cc1 [PP1922] ([NMeL]I[Sar][Sar][NPrPhe(4-CF3)][Sar][hPhe(3-Cl-4-CF3)]P[Ac4c(3-oxa)][NMeGly(cPent)][NMeD]-Morpholide; lactam N-11) |  | 44.1 nM |  | C (A compound having a KD ratio of 0.1 or more and less than 3 is denoted as C) | B (a compound having 3 or more and less than 10 is denoted as B) |  | 
CCO[C@@H]1C[C@H]2C(=O)NC3(CC(C)(C)C3)C(=O)N(C)[C@@H](C3CCCC3)C(=O)N(C)[C@H](C(=O)N(C)CC)CC(=O)N(C)[C@@H](CC)C(=O)N[C@@H]([C@@H](C)CC)C(=O)N(C)CC(=O)N(C)[C@H]3C/C=C\CCN(C3=O)[C@@H](Cc3ccc(C(F)(F)F)cc3)C(=O)N(C)CC(=O)N[C@@H](CCc3cc(F)c(C(F)(F)F)c(F)c3)C(=O)N2C1 [PP1579] |  | 4.1 nM |  |  |  | B (a compound having 3 or more and less than 10 is denoted as B) | A (a compound having 10 or more and less than 20 is denoted as A)
CCC[C@H]1C(=O)N[C@@H]([C@@H](C)CC)C(=O)N(C2CC2)CC(=O)N(C)[C@H]2C/C=C\CCN(C2=O)[C@@H](Cc2ccc(C)cc2)C(=O)N(C)CC(=O)N[C@@H](CCc2cc(F)c3c(c2)OCC3)C(=O)N2C[C@H](OCC)C[C@H]2C(=O)NC2(CC(C)(C)C2)C(=O)N(C)[C@@H](C2CCCC2)C(=O)N(C)[C@H](C(=O)N(C)C)CC(=O)N1C [PP2880] | A (a compound having 10 or more and less than 20 is denoted as A) | 127 nM | A (a compound having 10 or more and less than 20 is denoted as A) |  |  |  | 
